In patent publication US12421242B2, “Substituted tetrahydropyrrolo-pyridinone compounds and their use in treating medical conditions” (Karuna Therapeutics, Inc., priority 2022, dated 2025):

Key:
human M4 receptor = target: T1, human M4 receptor (Homo sapiens, UniProt P08173); experiment: M4 GTPγS PAM assay; format: biochemical; details: CHO-K1 membranes expressing human M4, with EC20 acetylcholine (40 nM)
T1 construct: expressed in transfected cells
T1 sequence (P08173 1-479): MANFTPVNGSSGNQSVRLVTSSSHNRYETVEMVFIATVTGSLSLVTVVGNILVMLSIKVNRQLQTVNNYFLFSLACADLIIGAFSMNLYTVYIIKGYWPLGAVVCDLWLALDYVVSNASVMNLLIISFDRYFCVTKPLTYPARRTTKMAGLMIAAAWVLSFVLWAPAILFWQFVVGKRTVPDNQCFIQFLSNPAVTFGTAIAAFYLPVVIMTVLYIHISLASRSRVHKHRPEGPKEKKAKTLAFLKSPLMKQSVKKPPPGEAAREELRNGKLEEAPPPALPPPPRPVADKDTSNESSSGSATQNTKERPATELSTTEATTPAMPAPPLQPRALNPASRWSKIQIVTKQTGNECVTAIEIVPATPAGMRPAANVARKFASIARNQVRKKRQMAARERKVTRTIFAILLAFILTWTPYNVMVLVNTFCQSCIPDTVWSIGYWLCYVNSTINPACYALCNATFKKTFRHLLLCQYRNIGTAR
Experimental: The M4 GTPγS PAM method was used. Membranes were prepared for GTPgS binding assays from CHO-K1 cells stably expressing human M4 receptor. Briefly, cells were grown in 5-layer cell culture flasks. Cells were washed with 50 mL of PBS and then dissociated with 0.05% trypsin. Dissociated cells were then collected by centrifugation at 650×g for 8 minutes at 4° C. Pellets were washed again in PBS by centrifugation and resuspended in 30 mL of 20 mM HEPES, 10 mM EDTA, pH 7.4. After sitting on ice for 30 min, membranes were collected by centrifugation at 50000×g for 15′ at 4° C., resuspended in 30 mL of 20 mM HEPES, 0.1 mM EDTA, pH 7.4 and collected again by centrifugation. Pellets were then washed twice by centrifugation in 30 mL of 20 mM HEPES, pH 7.4, and stored at −80° C. until the day of the assay. On the day of the assay, pellets were thawed on ice and resuspended in 1 mL of 20 mM HEPES, pH 7.4, 10 mM MgCl2, 100 mM NaCl using dounce homogenization. Membrane protein concentration is determined by BCA protein assay (Promega, Madison, WI) according to Promega guidelines.
On the day of the assay, serial dilutions of test PAM compounds were brought up in assay buffer (20 mM HEPES, 10 mM MgCl2, 100 mM NaCl) at 4× final assay concentration. […] of membrane homogenates (containing […] of membrane protein) were prepared in assay buffer supplemented with GDP at 4× final assay concentration (final assay concentration of GDP is 5 uM for M2 and 0.1 uM for M4) and dispensed into 96 well polypropylene, U-bottom Greiner plates. […] of vehicle or test PAM compound at 4× of final assay concentration diluted in the assay buffer were added to membrane and plates are incubated for 10-15 minutes at room temperature with gentle shaking. Then, […] of EC20 acetylcholine in assay buffer at 4× final assay concentration was added to assay plates (EC20 final assay concentrations was 40 nM for human M4).
Plates were then incubated, with shaking, for an additional 10-15 minutes. 25 mL of 0.4 nM ^35S-GTP (Perkin Elmer, Waltham, MA) in assay buffer was added to assay mixtures. The binding reaction is left on the shaker for 1 hour at room temperature. Membranes in assay reactions were then transferred to GF/C filter plates (Unifilter, Perkin Elmer) and washed three times using a FilterMate Harvester (Perkin Elmer) with cold assay buffer containing no GDP. Filter plates were then dried at 40° C. overnight followed by the addition of […] of Beta Plate Scintillation liquid. Plates are top and bottom sealed before being read on TopCount scintillation counter (Perkin Elmer, Waltham, MA).

hM4 receptors = target: T2, hM4 receptors (Homo sapiens, UniProt P08173); experiment: Human M4 PAM pERK assay; format: cell-based; details: PAM mode
T2 construct: expressed in transfected cells; host or cells: CHO cells
T2 sequence (P08173 1-479): T1 sequence (P08173 1-479)
Experimental: (§1) Chinese hamster ovary (CHO) cells expressing either hM4 or rM4 receptors were frozen in assay ready vials (5×10^6 cells/vial) after bulking-up in culture. The day before an assay, vial(s) were thawed and cells seeded in 384 well white proxiplates at 1000/well for hM4 cells and at 2000/well for rM4 cells, in 10 μL of growth media (Hams/F12 with glutamax and 10% FCS) and incubated overnight at 37° C./5% CO2.
(§2) On the following morning, the growth media was removed by ‘flicking out’ over a bin, patting the inverted plate onto tissue, and then replacing with 10 μL of wash media (Hams/F12 with glutamax and 8 mM HEPES, NB: serum free). Then, the wash media was removed in the same way and replaced with 8 μL/well of the serum free media. Plates were then re-incubated for a further 4 hours at 37° C./5% CO2.
(§3) Compounds for testing were solubilized to 10 mM in DMSO and compound addition plates, consisting of ten-point concentration response curves (CRC) in duplicate points (10 μM top concentration, […]), were prepared by acoustic dispensing and the compound management group.
(§4) After the 4-hour incubation in serum free media, a 4 μL aliquot of the 3× compound solution containing an EC20 of acetylcholine (10 nM final concentration) was added to the cell plate using a 384 well plate to plate transfer. Then, the plate lid was replaced, and the cells incubated for 5 mins at 37° C./5% CO2. Following this final incubation, all cellular processes were stopped by the addition of 4 μL/well of lysis and blocking buffer and plates were incubated for 30 minutes at RT on an orbital shaker (gentle setting). Then, a final addition of 4 μL/well of antibody detection mix, containing both the Europium-Cryptate (donor) and d2 (acceptor) tagged detection components, was added followed by a further 2-hour incubation at RT, and then the plate was read using a TR-FRET (time resolved fluorescence resonance energy transfer) based protocol.

rM4 receptors = target: T3, rM4 receptors (Rattus norvegicus, UniProt P08485); experiment: Rat M4 PAM pERK assay; format: cell-based; details: PAM mode
T3 construct: expressed in transfected cells; host or cells: CHO cells
T3 sequence (P08485 1-478): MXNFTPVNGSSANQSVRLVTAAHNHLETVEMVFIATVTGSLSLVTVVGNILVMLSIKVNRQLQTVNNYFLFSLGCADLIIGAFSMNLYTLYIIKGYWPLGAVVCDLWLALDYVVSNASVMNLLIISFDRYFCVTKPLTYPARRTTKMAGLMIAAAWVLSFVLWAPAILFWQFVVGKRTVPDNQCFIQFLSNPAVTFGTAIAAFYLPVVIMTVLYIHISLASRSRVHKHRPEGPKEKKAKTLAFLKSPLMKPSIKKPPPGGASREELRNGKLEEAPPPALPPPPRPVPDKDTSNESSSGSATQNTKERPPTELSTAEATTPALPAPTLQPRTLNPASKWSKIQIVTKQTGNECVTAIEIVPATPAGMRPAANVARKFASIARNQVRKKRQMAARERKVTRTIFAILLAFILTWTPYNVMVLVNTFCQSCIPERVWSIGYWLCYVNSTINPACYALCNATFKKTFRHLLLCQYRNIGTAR
Experimental: as §1, §2, §3, §4

| Structure (SMILES) | EC50 (human M4 receptor) [µM] | EC50 (hM4 receptors) [µM] | EC50 (rM4 receptors) [µM] |
| --- | --- | --- | --- |
| Cc1cc(=O)n(C)c2c1C(C)N(C(=O)c1cnc(C3CC3)s1)C2 (single isomer, unassigned) [Compound I-97] | > 2 | 0.1 to 0.5 | > 2 |
| Cc1cc(=O)n(C)c2c1C(C)N(C(=O)c1ccc3nc(C4CC4)sc3c1)C2 (single isomer, unassigned) [Compound I-98] | > 2 | > 2 | > 2 |
| Cc1cc(=O)n(C)c2c1C(C)N(C(=O)c1ccc3nc(C4CC4)sc3c1)C2 (single isomer, unassigned) [Compound I-99] | 0.5 to 2 | 0.1 to 0.5 | 0.5 to 2 |
| Cc1cc(=O)n(C)c2c1C(C)N(C(=O)c1ccc3nc(C(F)(F)F)sc3c1)C2 (single isomer, unassigned) [Compound I-100] | > 2 | > 2 | > 2 |
| Cc1c2c(n(C)c(=O)c1Cl)C(C)N(C(=O)c1cnn(C(F)(F)F)c1)C2 (single isomer, unassigned) [Compound I-108, 3-Chloro-1,4,7-trimethyl-6-(1-(trifluoromethyl)-1H-pyrazole-4-carbonyl)-1,5,6,7-tetrahydro-2H-pyrrolo[3,4-b]pyridin-2-one] | > 2 | 0.5 to 2 | > 2 |
| Cc1c2c(n(C)c(=O)c1Cl)CN(C(=O)c1cc(C3CC3)on1)C2 [Compound I-6] | > 2 | 0.1 to 0.5 | > 2 |
| Cc1ncc(C(=O)N2Cc3c(C)c(Cl)c(=O)n(C)c3C2)s1 [Compound I-9] | 0.5 to 2 | < 0.1 | 0.5 to 2 |
| Cc1nc(C(=O)N2Cc3c(C)c(Cl)c(=O)n(C)c3C2)co1 [Compound I-12] | > 2 | 0.1 to 0.5 | > 2 |
| Cc1c2c(n(C)c(=O)c1Cl)CN(C(=O)c1cn(C(C)C)cn1)C2 [Compound I-14] | > 2 | 0.5 to 2 | > 2 |
| Cc1c2c(n(C)c(=O)c1Cl)CN(C(=O)c1cnc(C)n1C)C2 [Compound I-18] | > 2 | 0.5 to 2 | > 2 |
| Cc1c2c(n(C)c(=O)c1Cl)CN(C(=O)c1cn(CC(C)C)cn1)C2 [Compound I-19] | > 2 | 0.5 to 2 | > 2 |
| Cc1c2c(n(C)c(=O)c1Cl)CN(C(=O)c1cnc(C3CC3)s1)C2 [Compound I-21] | 0.1 to 0.5 | < 0.1 | 0.5 to 2 |
| Cc1coc(C(=O)N2Cc3c(C)c(Cl)c(=O)n(C)c3C2)n1 [Compound I-22] | 0.5 to 2 | 0.1 to 0.5 | > 2 |
| Cc1c2c(n(C)c(=O)c1Cl)CN(C(=O)c1cn3c(n1)CCCC3)C2 [Compound I-24] | > 2 | 0.5 to 2 | > 2 |
| Cc1c2c(n(C)c(=O)c1Cl)CN(C(=O)c1cnc(CC3CC3)s1)C2 [Compound I-28] | 0.1 to 0.5 | < 0.1 | 0.5 to 2 |
| Cc1c2c(n(C)c(=O)c1Cl)CN(C(=O)c1cc3n(n1)CCCC3)C2 [Compound I-32] | 0.5 to 2 | 0.1 to 0.5 | > 2 |

Continued, values first:

| EC50 (human M4 receptor) [µM] | EC50 (hM4 receptors) [µM] | EC50 (rM4 receptors) [µM] | Structure (SMILES) |
| --- | --- | --- | --- |
| > 2 | 0.5 to 2 | > 2 | Cc1c2c(n(C)c(=O)c1Cl)CN(C(=O)c1ccn(C)n1)C2 [Compound I-3] |
| > 2 | < 0.1 | > 2 | Cc1c2c(n(C)c(=O)c1Cl)CN(C(=O)c1cc(C(F)(F)F)on1)C2 [Compound I-8] |
| > 2 | < 0.1 | 0.5 to 2 | Cc1c2c(n(C)c(=O)c1Cl)CN(C(=O)c1cnn(C(F)F)c1)C2 [Compound I-17] |
| > 2 | 0.1 to 0.5 | > 2 | Cc1c2c(n(C)c(=O)c1Cl)CN(C(=O)c1csc(C(F)(F)F)n1)C2 [Compound I-26] |
| 0.5 to 2 | < 0.1 | 0.5 to 2 | Cc1c2c(n(C)c(=O)c1Cl)CN(C(=O)c1cnc(C(F)(F)F)s1)C2 [Compound I-29] |
| 0.5 to 2 | < 0.1 | 0.5 to 2 | Cc1c2c(n(C)c(=O)c1Cl)CN(C(=O)c1cnc(C(F)F)s1)C2 [Compound I-36] |
| > 2 | 0.5 to 2 | > 2 | Cc1c2c(n(C)c(=O)c1Cl)CN(C(=O)c1cccc(C(F)(F)F)c1)C2 [Compound I-40] |
| 0.1 to 0.5 | 0.1 to 0.5 | 0.5 to 2 | Cc1c2c(n(C)c(=O)c1Cl)CN(C(=O)c1ccc(C(F)(F)F)cc1)C2 [Compound I-41] |
| > 2 | 0.5 to 2 | > 2 | Cc1c2c(n(C)c(=O)c1Cl)CN(C(=O)c1ccnc(C(F)(F)F)c1)C2 [Compound I-42] |
| < 0.1 | 0.1 to 0.5 | 0.5 to 2 | Cc1c2c(n(C)c(=O)c1Cl)CN(C(=O)c1ccc(C(F)(F)F)nc1)C2 [Compound I-44] |
| > 2 | 0.1 to 0.5 | > 2 | Cc1c2c(n(C)c(=O)c1Cl)CN(C(=O)c1ccc(C(F)(F)F)cn1)C2 [Compound I-45] |
| 0.5 to 2 | 0.1 to 0.5 | 0.5 to 2 | Cc1c2c(n(C)c(=O)c1Cl)CN(C(=O)c1ccc3nc(C(F)(F)F)sc3c1)C2 [Compound I-49] |
| 0.5 to 2 | 0.1 to 0.5 | 0.1 to 0.5 | Cc1c2c(n(C)c(=O)c1Cl)CN(C(=O)c1ccc3nc(C4CC4)sc3c1)C2 [Compound I-52, 3-Chloro-6-(2-cyclopropylbenzo[d]thiazole-6-carbonyl)-1,4-dimethyl-1,5,6,7-tetrahydro-2H-pyrrolo[3,4-b]pyridin-2-one] |
